Source: ChEMBL document CHEMBL5532698, “2,3-Dihydroquinazolin-4(1H)-ones and quinazolin-4(3H)-ones as broad-spectrum cytotoxic agents and their impact on tubulin polymerisation” (RSC Med Chem, 2024)

Assays:
DU-145 = test: Antiproliferative activity against human DU-145 cells assessed as cell growth inhibition at 25 uM incubated for 72 hrs by MTT assay relative to control; type: functional
A2780 = test: Antiproliferative activity against human A2780 cells assessed as cell growth inhibition at 25 uM incubated for 72 hrs by MTT assay relative to control; type: functional
BE(2)-C = test: Antiproliferative activity against human BE2C cells assessed as cell growth inhibition at 25 uM incubated for 72 hrs by MTT assay relative to control; type: functional
U-87 MG = test: Antiproliferative activity against human U87 cells assessed as cell growth inhibition at 25 uM incubated for 72 hrs by MTT assay relative to control; type: functional, U-87MG ATCC
[1] = Antiproliferative activity against human SJG2 cells assessed as cell growth inhibition at 25 uM incubated for 72 hrs by MTT assay relative to control; type: functional; details: SJ-G2
HT-29 = test: Antiproliferative activity against human HT-29 cells assessed as cell growth inhibition at 25 uM incubated for 72 hrs by MTT assay relative to control; type: functional
[2] = Cytotoxicity against human MCF-10A cells assessed as cell growth inhibition at 25 uM incubated for 72 hrs by MTT assay relative to control; type: toxicity, cell-based
MCF7 = test: Antiproliferative activity against human MCF7 cells assessed as cell growth inhibition at 25 uM incubated for 72 hrs by MTT assay relative to control; type: functional
NCI-H460 = test: Antiproliferative activity against human NCI-H460 cells assessed as cell growth inhibition at 25 uM incubated for 72 hrs by MTT assay relative to control; type: functional
MIA PaCa-2 = test: Antiproliferative activity against human MIA PaCa-2 cells assessed as cell growth inhibition at 25 uM incubated for 72 hrs by MTT assay relative to control; type: functional
A-431 = test: Antiproliferative activity against human A-431 cells assessed as cell growth inhibition at 25 uM incubated for 72 hrs by MTT assay relative to control; type: functional

Row | SMILES | inhibition at 25 µM (DU-145) [%] | inhibition at 25 µM (A2780) [%] | inhibition at 25 µM (BE(2)-C) [%] | inhibition at 25 µM (U-87 MG) [%] | inhibition at 25 µM [1] [%] | inhibition at 25 µM (HT-29) [%] | inhibition at 72 h, 25 µM [2] [%] | inhibition at 25 µM (MCF7) [%] | inhibition at 25 µM (NCI-H460) [%] | inhibition at 25 µM (MIA PaCa-2) [%] | inhibition at 25 µM (A-431) [%]
1 | O=C1NC(C2CCCCC2)Nc2ccccc21 (stereo not drawn) | 18 | 41 | 32 | 10 | < 10 | 23 | 8 | 18 | < 10 | 12 | 22
2 | O=c1[nH]c(-c2ccccc2Br)nc2ccccc12 | 25 | 13 | 23 | 14 | 11 | 15 | 17 | 10 | 20 | 24 | 12
3 | O=C1NC(c2ccccc2C(=O)O)Nc2ccccc21 (stereo not drawn) | 20 | 48 | 19 | < 10 | 49 | 37 | 20 | 49 | 43 | 20 | 22
4 | O=C1NC(C2CCCC2)Nc2ccccc21 (stereo not drawn) | 22 | 39 | 20 | 11 | < 10 | 22 | 12 | 35 | < 10 | 19 | 15
5 | O=C1NC(c2ccccc2[N+](=O)[O-])Nc2ccccc21 (stereo not drawn) | 27 | 33 | < 10 | 16 | 33 | 28 | 16 | 16 | 35 | 21 | 36
6 | N#Cc1cccc(C2NC(=O)c3ccccc3N2)c1 (stereo not drawn) | 26 | 54 | 20 | 19 | 18 | 31 | 12 | 60 | 17 | 14 | 34
7 | COc1cc2c(c(OC)c1OC)-c1ccc(OC)c(=O)cc1[C@@H](NC(C)=O)CC2 [COLCHICINE] | 34 | 62 | 61 | 21 | 47 | 50 | 57 | 85 | 35 | 89 | 11
8 | N#Cc1ccc(C2NC(=O)c3ccccc3N2)cc1 (stereo not drawn) | 10 | 18 | < 10 | < 10 | 14 | 16 | 10 | 40 | 11 | 11 | < 10
9 | CCCC/C=C/c1nc2ccccc2c(=O)[nH]1 | 26 | 43 | < 10 | 25 | 16 | < 10 | 11 | 16 | 33 | 18 | 22
10 | O=C1NC(c2c[nH]c3ccccc23)Nc2ccccc21 (stereo not drawn) | ≥ 77 | 94 | 89 | 70 | > 100 | ≥ 84 | 90 | 78 | 87 | 79 | ≥ 79
11 | O=C(O)c1cccc(C2NC(=O)c3ccccc3N2)c1 (stereo not drawn) | 31 | 10 | 12 | 10 | 12 | 24 | 22 | 43 | 12 | 13 | < 10
12 | O=C(O)c1ccc(C2NC(=O)c3ccccc3N2)cc1 (stereo not drawn) | 36 | < 10 | 12 | 13 | 10 | 18 | 8 | 41 | < 10 | 14 | < 10
13 | Oc1nc(-c2ccncc2)nc2ccccc12 | < 10 | < 10 | < 10 | < 10 | < 10 | 11 | < 10 | < 10 | 15 | 10 | < 10
14 | O=C1NC(c2ccc(Br)o2)Nc2ccccc21 (stereo not drawn) | < 10 | 37 | 20 | < 10 | 12 | < 10 | < 10 | 13 | < 10 | < 10 | < 10
15 | CCCCC1NC(=O)c2ccccc2N1 (stereo not drawn) | 25 | 59 | 38 | 9 | < 10 | 32 | 13 | 25 | < 10 | 16 | 30
16 | O=C1NC(c2cc(O)c(O)c(O)c2)Nc2ccccc21 (stereo not drawn) | 40 | 36 | 27 | 29 | 10 | 49 | 51 | 56 | 19 | 34 | 21
17 | O=C1NC(c2ccc3nsnc3c2)Nc2ccccc21 (stereo not drawn) | 22 | 60 | 64 | < 10 | 29 | 35 | 41 | 49 | 21 | 22 | 25
18 | O=C1NC(c2cccnc2)Nc2ccccc21 (stereo not drawn) | < 10 | < 10 | < 10 | < 10 | < 10 | < 10 | < 10 | 21 | < 10 | 11 | < 10
